From ChEMBL document CHEMBL1137292, “Synthesis and activity of a folate peptide camptothecin prodrug” (Bioorg Med Chem Lett, 2006) come the findings set out here.

One experiment relates to KB. In words: Antiproliferative activity against human KB cells expressing FR in presence of folic acid after 72 hrs by [3H]thymidine incorporation assay. The class given is functional, cell-based.
Experiment [1] deals with Folate receptor alpha (Homo sapiens) (UniProt P15328). Description: Displacement of [3H]folic acid from human folate receptor expressed in KB cells relative to folic acid. Format: cell-based.
Chain of Folate receptor alpha (Homo sapiens) (P15328 25-234 limits assumed): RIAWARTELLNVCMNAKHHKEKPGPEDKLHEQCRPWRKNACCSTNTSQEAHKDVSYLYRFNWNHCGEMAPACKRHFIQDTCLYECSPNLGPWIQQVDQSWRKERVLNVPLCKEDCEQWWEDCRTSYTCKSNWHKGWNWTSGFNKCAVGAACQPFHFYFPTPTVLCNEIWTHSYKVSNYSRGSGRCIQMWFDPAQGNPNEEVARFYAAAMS

Each structure is given as a SMILES string. Starred links: 1 amine or outer side, 2 acyl side, 3 side chain; linkers in the order of their positions; H or OH if unused. Residues, ends and D or L forms follow the SMILES beside them. *: point of attachment. S(CH2)2OCO2(CPT-20-yl) = CC[C@@]1(OC(=O)OCCS*)C(=O)OCc2c1cc1n(c2=O)Cc2cc3ccccc3nc2-1; Pteroyl = Nc1nc2ncc(CNc3ccc(C(=O)*)cc3)nc2c(=O)[nH]1; γGlu = O=C(O)[C@H](CCC(=O)[*:2])N[*:1]

Take `CC[C@@]1(OC(=O)OCCSSC[C@H](NC(=O)[C@H](CC(=O)O)NC(=O)[C@H](CC(=O)O)NC(=O)[C@H](CCCNC(=N)N)NC(=O)[C@H](CC(=O)O)NC(=O)CC[C@H](NC(=O)c2ccc(NCc3cnc4nc(N)[nH]c(=O)c4n3)cc2)C(=O)O)C(=O)O)C(=O)OCc2c1cc1n(c2=O)Cc2cc3ccccc3nc2-1` ({Pteroyl-γGlu}-DRDDC(S(CH2)2OCO2(CPT-20-yl))-OH): the IC50 in the experiment on KB turned out to be 0.01 µM. In experiment [1], this compound had a relative binding affinity (RBA) of 0.44.
